From patent US12617758B2, “Quinazoline derivative having FLT3 inhibitory activity, and use thereof” (INDUSTRY-UNIVERSITY COOPERATION FOUNDATION HANYANG …, priority 2020, dated 2026)
Read-outs that look alike come from different tables or passages of the source.

Columns and labels:
Type in all cases: biochemical
LCK = LCK (Homo sapiens, UniProt P06239); assay: Kinase panel screening; details: single dose of 10 μM, read-out: % inhibition rate
MEK1 = MEK1 (Homo sapiens, UniProt Q02750); assay: Kinase panel screening; details: single dose of 10 μM, read-out: % inhibition rate
Sequence of MEK1 (Q02750 whole entry, species assumed): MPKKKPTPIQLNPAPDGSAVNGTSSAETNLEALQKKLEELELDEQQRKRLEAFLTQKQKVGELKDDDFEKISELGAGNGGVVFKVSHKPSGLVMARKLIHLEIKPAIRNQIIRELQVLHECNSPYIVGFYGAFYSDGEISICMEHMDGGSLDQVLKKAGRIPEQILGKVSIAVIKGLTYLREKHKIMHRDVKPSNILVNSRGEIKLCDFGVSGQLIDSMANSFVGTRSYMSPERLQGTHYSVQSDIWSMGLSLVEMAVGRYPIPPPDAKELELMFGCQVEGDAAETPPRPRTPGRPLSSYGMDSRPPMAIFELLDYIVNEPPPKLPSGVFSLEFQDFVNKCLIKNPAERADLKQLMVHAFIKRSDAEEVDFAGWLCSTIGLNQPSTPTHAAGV

FMS = FMS (Homo sapiens, UniProt P07333); assay: Kinase panel screening; details: single dose of 10 μM, read-out: % inhibition rate
Sequence of FMS (P07333 20-972, species assumed): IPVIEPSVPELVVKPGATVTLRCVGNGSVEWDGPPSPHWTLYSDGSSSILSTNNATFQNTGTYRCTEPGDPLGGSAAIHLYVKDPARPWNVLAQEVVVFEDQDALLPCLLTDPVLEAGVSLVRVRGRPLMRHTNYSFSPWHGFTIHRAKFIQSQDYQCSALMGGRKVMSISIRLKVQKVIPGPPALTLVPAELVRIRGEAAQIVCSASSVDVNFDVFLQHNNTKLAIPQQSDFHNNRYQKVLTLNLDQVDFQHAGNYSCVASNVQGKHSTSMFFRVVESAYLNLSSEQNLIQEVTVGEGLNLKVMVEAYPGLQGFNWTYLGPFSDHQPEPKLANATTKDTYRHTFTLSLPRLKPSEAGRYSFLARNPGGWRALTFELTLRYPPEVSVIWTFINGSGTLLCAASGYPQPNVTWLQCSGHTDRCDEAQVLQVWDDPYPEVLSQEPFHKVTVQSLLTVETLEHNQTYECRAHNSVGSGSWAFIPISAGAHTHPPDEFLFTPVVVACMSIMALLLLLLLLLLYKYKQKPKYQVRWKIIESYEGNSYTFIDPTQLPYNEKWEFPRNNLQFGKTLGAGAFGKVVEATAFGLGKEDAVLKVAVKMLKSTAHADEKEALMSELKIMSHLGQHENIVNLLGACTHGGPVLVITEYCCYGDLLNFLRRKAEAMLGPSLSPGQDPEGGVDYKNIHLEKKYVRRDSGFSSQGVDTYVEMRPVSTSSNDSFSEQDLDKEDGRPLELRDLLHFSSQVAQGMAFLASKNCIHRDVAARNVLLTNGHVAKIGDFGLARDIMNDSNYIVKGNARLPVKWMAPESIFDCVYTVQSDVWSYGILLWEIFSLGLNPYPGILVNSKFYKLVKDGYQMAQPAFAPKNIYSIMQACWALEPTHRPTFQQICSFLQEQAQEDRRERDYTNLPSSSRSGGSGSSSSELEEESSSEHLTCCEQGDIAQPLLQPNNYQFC

FLT3 = molecular target: T1, FLT3 (Homo sapiens, UniProt P36888); assay: FLT3 enzyme activity (IC50)
T1 sequence (P36888 27-993): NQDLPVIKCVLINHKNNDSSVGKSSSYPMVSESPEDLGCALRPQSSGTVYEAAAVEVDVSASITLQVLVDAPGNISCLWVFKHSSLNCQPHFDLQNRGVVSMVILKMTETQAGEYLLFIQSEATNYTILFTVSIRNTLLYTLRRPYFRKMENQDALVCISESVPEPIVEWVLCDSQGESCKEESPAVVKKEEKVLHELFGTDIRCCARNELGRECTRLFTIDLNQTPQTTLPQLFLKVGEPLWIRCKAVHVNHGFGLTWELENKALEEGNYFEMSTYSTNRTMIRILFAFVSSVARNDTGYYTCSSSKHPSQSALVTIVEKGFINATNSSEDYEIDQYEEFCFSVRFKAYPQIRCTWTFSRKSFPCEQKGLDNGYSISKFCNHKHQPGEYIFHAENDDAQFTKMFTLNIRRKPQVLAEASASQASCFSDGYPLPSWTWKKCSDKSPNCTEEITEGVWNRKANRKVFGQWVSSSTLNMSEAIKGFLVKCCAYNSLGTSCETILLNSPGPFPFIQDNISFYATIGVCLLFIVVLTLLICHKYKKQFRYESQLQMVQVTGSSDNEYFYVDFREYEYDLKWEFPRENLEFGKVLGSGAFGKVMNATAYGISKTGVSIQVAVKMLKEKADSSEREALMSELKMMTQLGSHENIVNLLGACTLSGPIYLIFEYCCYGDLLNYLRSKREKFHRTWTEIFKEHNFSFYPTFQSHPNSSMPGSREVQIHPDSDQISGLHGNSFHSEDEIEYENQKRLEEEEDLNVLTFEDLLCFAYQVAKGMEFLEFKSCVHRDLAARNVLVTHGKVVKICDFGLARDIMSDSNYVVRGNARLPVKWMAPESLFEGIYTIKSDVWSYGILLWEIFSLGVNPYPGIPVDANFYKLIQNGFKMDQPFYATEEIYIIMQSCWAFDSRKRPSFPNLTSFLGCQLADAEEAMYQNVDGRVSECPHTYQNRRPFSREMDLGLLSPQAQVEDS
Excerpt: Experimental Example 1. Measurement of FLT3 and FLT Enzyme Activity
Changes in FLT3 and FLT enzyme activities by treatment with the quinazoline derivatives of the following Table 1 according to the present invention were confirmed by IC50.

Sequence of LCK (P06239 whole entry, species assumed): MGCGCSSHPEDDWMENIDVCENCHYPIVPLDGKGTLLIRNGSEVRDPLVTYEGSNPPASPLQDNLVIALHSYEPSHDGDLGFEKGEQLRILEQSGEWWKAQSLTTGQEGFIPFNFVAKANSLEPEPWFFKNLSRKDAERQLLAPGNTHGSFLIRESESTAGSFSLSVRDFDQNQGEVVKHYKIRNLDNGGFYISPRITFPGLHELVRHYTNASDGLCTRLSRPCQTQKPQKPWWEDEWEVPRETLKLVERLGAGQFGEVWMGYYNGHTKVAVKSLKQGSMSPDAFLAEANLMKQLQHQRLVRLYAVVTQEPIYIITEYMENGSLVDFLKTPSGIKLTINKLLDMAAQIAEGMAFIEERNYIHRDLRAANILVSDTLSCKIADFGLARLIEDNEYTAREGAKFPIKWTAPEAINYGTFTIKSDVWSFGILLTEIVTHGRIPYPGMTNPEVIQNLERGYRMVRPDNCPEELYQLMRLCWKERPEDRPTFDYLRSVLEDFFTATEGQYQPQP

For `Cc1oncc1C(=O)Nc1ccc2cnc(-c3cc(N4CCN(C)CC4)cc(C(F)(F)F)c3)nc2c1` [Compound 7d, 5-methyl-N-(2-(3-(4-methylpiperazin-1-yl)-5-(trifluoromethyl)phenyl)quinazolin-7-yl)isoxazole-4-carboxamide], which inhibition at 10 µM (LCK) is on record?
Its inhibition at 10 µM is 19.7%.

What about the inhibition at 10 µM (MEK1) of the same compound?
Its inhibition at 10 µM is 0%.

What about the inhibition at 10 µM (FMS) of the same compound?
The inhibition at 10 µM was 5.49%.

What about the IC50 (FLT3; read-out: FLT3 IC50) of the same compound?
Its IC50 is < 3000 nM.

What about the IC50 (FLT3; read-out: IC50 against FLT3) of the same compound?
Its IC50 is 106 nM.
